# Measurements published in patent US9695155B2, “Herbicidal substituted pyrimidinyloxy benzene compounds” (E. I. DU PONT DE NEMOURS AND COMPANY, priority 2013, dated 2017).
# Key:
# large (Lg) crabgrass [1] = test: Test C preemergence; format: in vivo, Digitaria sanguinalis; settings: Digitaria sanguinalis, pre-emergence
# Method in brief: (§1)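 Visual injury score versus untreated controls, 0 = no effect, 100 = complete control, taken 13 to 15 days after treatment in the greenhouse. Pre-emergence pots held loam/sand; post-emergence plants grew in sphagnum peat/vermiculite mix and were sprayed at the 1- to 4-leaf stage.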
# velvetleaf [2] = test: Test C preemergence; format: in vivo, Abutilon theophrasti; settings: Abutilon theophrasti, pre-emergence
# Method in brief: as §1
# rice = test: Test B flooded paddy test; format: in vivo, Oryza sativa; settings: Oryza sativa; Flood, 250 g ai/ha; 0 to 100 scale where 0 is no effect and 100 is complete control; read-out: Plant response rating, Rice
# Method in brief: (§2)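 2-leaf stage plants; pots flooded to 3 cm, compound added to paddy water, depth maintained. Greenhouse 13–15 d. Visual rating vs untreated controls, 0 (no effect) to 100 (complete control); dash = no result.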
# corn = test: Test A postemergence; format: in vivo, Zea mays; settings: Zea mays, post-emergence, 240 h
# Method in brief: (§3)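 Visual injury scored 0–100 (100 = complete control) against untreated controls about 10 days after treatment in a greenhouse. Test chemicals, formulated with surfactant in non-phytotoxic solvent, were sprayed on soil preemergence or on 2-10 cm, one- to two-leaf plants postemergence.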
# waterhemp = test: Test C postemergence; format: in vivo, Amaranthus rudis; settings: Amaranthus tuberculatus, post-emergence
# Method in brief: as §1
# velvetleaf [3] = test: Test C postemergence; format: in vivo, Abutilon theophrasti; settings: Abutilon theophrasti, post-emergence
# Method in brief: as §1
# barnyardgrass [4] = test: Test A preemergence; format: in vivo, Echinochloa crus-galli; settings: Echinochloa crus-galli, pre-emergence, 240 h
# Method in brief: as §3
# soybean = test: Test C postemergence; format: in vivo, Glycine max; settings: Glycine max, post-emergence
# Method in brief: as §1
# oilseed rape = test: Test C postemergence; format: in vivo, Brassica napus; settings: Brassica napus, post-emergence
# Method in brief: as §1
# johnsongrass = test: Test C preemergence; format: in vivo, Sorghum halepense; settings: Sorghum halepense, pre-emergence
# Method in brief: as §1
# galium = test: Test C preemergence; format: in vivo, Galium aparine; settings: Galium, pre-emergence
# Method in brief: as §1
# sedge, umbrella = test: Test B flooded paddy test; format: in vivo, Cyperus difformis; settings: Cyperus difformis, Flood, 250 g ai/ha; 0 to 100 scale where 0 is no effect and 100 is complete control; read-out: Plant response rating, Sedge, Umbrella
# Method in brief: as §2
# large (Lg) crabgrass [5] = test: Test C postemergence; format: in vivo, Digitaria sanguinalis; settings: Digitaria sanguinalis, post-emergence
# Method in brief: as §1
# lambsquarters = test: Test C postemergence; format: in vivo, Chenopodium album; settings: Chenopodium album, post-emergence
# Method in brief: as §1
# barnyardgrass [6] = test: Test A postemergence; format: in vivo, Echinochloa crus-galli; settings: Echinochloa crus-galli, post-emergence, 240 h
# Method in brief: as §3
# [7] = 125 g ai/ha, 0 to 100 scale where 0 is no effect and 100 is complete control, read-out: Plant response rating, Barnyardgrass
structure (smiles),measurement,setting,value
"N#Cc1cccc(Oc2ncc(Br)cn2)c1-n1cc(C(F)(F)F)cn1 [Compound 59, 3-[(5-bromo-2-pyrimidinyl)oxy]-2-[4-(trifluoromethyl)-1H-pyrazol-1-yl]benzonitrile]",pest or weed control at 62 g/ha,"large (Lg) crabgrass [1]; 62 g ai/ha, preemergence, scale 0 (no effect) to 100 (complete control), read-out: Crabgrass, Large plant response rating",100%
same,pest or weed control at 125 g/ha,"large (Lg) crabgrass [1]; 125 g ai/ha, preemergence, scale 0 (no effect) to 100 (complete control), read-out: Crabgrass, Large plant response rating",100%
same,pest or weed control at 250 g/ha,"large (Lg) crabgrass [1]; 250 g ai/ha, preemergence, scale 0 (no effect) to 100 (complete control), read-out: Crabgrass, Large plant response rating",100%
same,pest or weed control at 31 g/ha,"large (Lg) crabgrass [1]; Preemergence, 31 g ai/ha, scale 0 to 100, 0 no effect, 100 complete control, read-out: Plant response rating, Crabgrass, Large",100%
same,pest or weed control at 62 g/ha,"velvetleaf [2]; 62 g ai/ha, preemergence, scale 0 (no effect) to 100 (complete control), read-out: Velvetleaf plant response rating",100%
same,pest or weed control at 125 g/ha,"velvetleaf [2]; 125 g ai/ha, preemergence, scale 0 (no effect) to 100 (complete control), read-out: Velvetleaf plant response rating",100%
same,pest or weed control at 250 g/ha,"velvetleaf [2]; 250 g ai/ha, preemergence, scale 0 (no effect) to 100 (complete control), read-out: Velvetleaf plant response rating",100%
same,pest or weed control at 31 g/ha,"velvetleaf [2]; Preemergence, 31 g ai/ha, scale 0 to 100, 0 no effect, 100 complete control, read-out: Plant response rating, Velvetleaf",100%
same,plant injury at 250 g/ha,rice,20%
same,"Corn plant response rating (crop injury, 0 = no effect, 100 = complete kill) at 125 g/ha","corn; 125 g ai/ha, 0 to 100 scale where 0 is no effect and 100 is complete control",60%
same,plant injury at 500 g/ha,"corn; 500 g ai/ha, 0 to 100 scale, 0 no effect, 100 complete control, read-out: Plant response rating Corn",100%
same,pest or weed control at 125 g/ha,"waterhemp; 125 g ai/ha, postemergence, read-out: Plant response rating (0 to 100), Waterhemp",90%
same,pest or weed control at 250 g/ha,"waterhemp; 250 g ai/ha, postemergence, read-out: Plant response rating (0 to 100), Waterhemp",98%
same,pest or weed control at 31 g/ha,"waterhemp; Postemergence, 31 g ai/ha, scale 0 to 100 (0 no effect, 100 complete control), 13 to 15 days, read-out: Plant response rating, Waterhemp",85%
same,pest or weed control at 62 g/ha,"waterhemp; Postemergence, 62 g ai/ha, scale 0 to 100 (0 no effect, 100 complete control), read-out: Plant response rating, Waterhemp",85%
same,pest or weed control at 125 g/ha,"velvetleaf [3]; 125 g ai/ha, postemergence, read-out: Plant response rating (0 to 100), Velvetleaf",55%
same,pest or weed control at 250 g/ha,"velvetleaf [3]; 250 g ai/ha, postemergence, read-out: Plant response rating (0 to 100), Velvetleaf",70%
same,pest or weed control at 31 g/ha,"velvetleaf [3]; Postemergence, 31 g ai/ha, scale 0 to 100 (0 no effect, 100 complete control), 13 to 15 days, read-out: Plant response rating, Velvetleaf",15%
same,pest or weed control at 62 g/ha,"velvetleaf [3]; Postemergence, 62 g ai/ha, scale 0 to 100 (0 no effect, 100 complete control), read-out: Plant response rating, Velvetleaf",30%
same,pest or weed control at 125 g/ha,barnyardgrass [4]; [7],80%
same,pest or weed control at 500 g/ha,"barnyardgrass [4]; 500 g ai/ha, 0 to 100 scale, 0 no effect, 100 complete control, approx. 10 days, read-out: Barnyardgrass plant response rating",100%
same,"Soybean plant response rating (crop injury, 0-100 scale) at 125 g/ha","soybean; 125 g ai/ha, postemergence, read-out: Plant response rating (0 to 100), Soybean",98%
same,"Soybean plant response rating (crop injury, 0-100 scale) at 250 g/ha","soybean; 250 g ai/ha, postemergence",98%
same,"Soybean plant response rating (crop injury, 0-100 scale) at 31 g/ha","soybean; Postemergence, 31 g ai/ha, scale 0 to 100 (0 no effect, 100 complete control), 13 to 15 days",75%
same,"Soybean plant response rating (crop injury, 0-100 scale) at 62 g/ha","soybean; Postemergence, 62 g ai/ha, scale 0 to 100 (0 no effect, 100 complete control)",85%
same,plant injury at 125 g/ha,"oilseed rape; 125 g ai/ha, postemergence, read-out: Plant response rating (0 to 100), Oilseed Rape",85%
same,plant injury at 250 g/ha,"oilseed rape; 250 g ai/ha, postemergence, read-out: Plant response rating (0 to 100), Oilseed Rape",95%
same,plant injury at 31 g/ha,"oilseed rape; Postemergence, 31 g ai/ha, scale 0 to 100 (0 no effect, 100 complete control), 13 to 15 days, read-out: Plant response rating, Oilseed Rape",50%
same,plant injury at 62 g/ha,"oilseed rape; Postemergence, 62 g ai/ha, scale 0 to 100 (0 no effect, 100 complete control), read-out: Plant response rating, Oilseed Rape",50%
same,pest or weed control at 62 g/ha,"johnsongrass; 62 g ai/ha, preemergence, scale 0 (no effect) to 100 (complete control), read-out: Johnsongrass plant response rating",85%
same,pest or weed control at 125 g/ha,"johnsongrass; 125 g ai/ha, preemergence, scale 0 (no effect) to 100 (complete control), read-out: Johnsongrass plant response rating",98%
same,pest or weed control at 250 g/ha,"johnsongrass; 250 g ai/ha, preemergence, scale 0 (no effect) to 100 (complete control), read-out: Johnsongrass plant response rating",100%
same,pest or weed control at 31 g/ha,"johnsongrass; Preemergence, 31 g ai/ha, scale 0 to 100, 0 no effect, 100 complete control, read-out: Plant response rating, Johnsongrass",60%
same,pest or weed control at 62 g/ha,"galium; 62 g ai/ha, preemergence, scale 0 (no effect) to 100 (complete control), read-out: Galium plant response rating",100%
same,pest or weed control at 125 g/ha,"galium; 125 g ai/ha, preemergence, scale 0 (no effect) to 100 (complete control), read-out: Galium plant response rating",100%
same,pest or weed control at 250 g/ha,"galium; 250 g ai/ha, preemergence, scale 0 (no effect) to 100 (complete control), read-out: Galium plant response rating",100%
same,pest or weed control at 31 g/ha,"galium; Preemergence, 31 g ai/ha, scale 0 to 100, 0 no effect, 100 complete control, read-out: Plant response rating, Galium",100%
same,pest or weed control at 250 g/ha,"sedge, umbrella",90%
same,pest or weed control at 125 g/ha,"large (Lg) crabgrass [5]; 125 g ai/ha, postemergence, read-out: Plant response rating (0 to 100), Crabgrass, Large",30%
same,pest or weed control at 250 g/ha,"large (Lg) crabgrass [5]; 250 g ai/ha, postemergence, read-out: Plant response rating (0 to 100), Crabgrass, Large",40%
same,pest or weed control at 31 g/ha,"large (Lg) crabgrass [5]; Postemergence, 31 g ai/ha, scale 0 to 100 (0 no effect, 100 complete control), 13 to 15 days, read-out: Plant response rating, Crabgrass, Large",10%
same,pest or weed control at 62 g/ha,"large (Lg) crabgrass [5]; Postemergence, 62 g ai/ha, scale 0 to 100 (0 no effect, 100 complete control), read-out: Plant response rating, Crabgrass, Large",10%
same,pest or weed control at 125 g/ha,"lambsquarters; 125 g ai/ha, postemergence, read-out: Plant response rating (0 to 100), Lambsquarters",90%
same,pest or weed control at 250 g/ha,"lambsquarters; 250 g ai/ha, postemergence, read-out: Plant response rating (0 to 100), Lambsquarters",90%
same,pest or weed control at 31 g/ha,"lambsquarters; Postemergence, 31 g ai/ha, scale 0 to 100 (0 no effect, 100 complete control), 13 to 15 days, read-out: Plant response rating, Lambsquarters",70%
same,pest or weed control at 62 g/ha,"lambsquarters; Postemergence, 62 g ai/ha, scale 0 to 100 (0 no effect, 100 complete control), read-out: Plant response rating, Lambsquarters",80%
same,pest or weed control at 125 g/ha,barnyardgrass [6]; [7],100%
same,pest or weed control at 500 g/ha,"barnyardgrass [6]; 500 g ai/ha, 0 to 100 scale, 0 no effect, 100 complete control, read-out: Plant response rating Barnyardgrass",100%
